Assay results: ChEMBL document CHEMBL4340504, “Caged-xanthone from Cratoxylum formosum ssp. pruniflorum inhibits malignant cancer phenotypes in multidrug-resistant human A549 lung cancer cells through down-regulation of NF-κB” (Bioorg Med Chem, 2019)
Activity calls are given as the source filed them.

Tests used:
[1] = species on record: Homo sapiens; assay: Inhibition of NFkappaB in human A549RT-eto cells assessed as reduction in epithelial-mesenchymal transition by measuring up regulation of E-Cadherin expression at 1 to 1.5 ug/ml after 24 hrs by immunoblotting analysis; type: cell-based
[2] = species on record: Homo sapiens; assay: Induction of apoptosis in human A549RT-eto cells assessed as increase in PARP level at 1 to 5 ug/ml measured after 24 hrs by immunoblotting analysis; type: functional, cell-based
[3] = species on record: Homo sapiens; assay: Down regulation of NFkappaB expression in human A549RT-eto cells transfected with NF-kappaB siRNA at 1.5 ug/ml by immunoblotting analysis; type: functional, cell-based
[4] = species on record: Homo sapiens; assay: Antimigratory activity in human A549RT-eto cells assessed as decrease in cell migration at 1.5 ug/ml for 24 hrs by phase contrast microscopy-based scratch would healing assay; type: functional
[5] = species on record: Homo sapiens; assay: Induction of apoptosis in human A549RT-eto cells transfected with NF-kappaB siRNA assessed as increase in pro-caspase 8 expression at 1.5 ug/ml by immunoblotting analysis; type: functional, cell-based
[6] = test system: A549; assay: Cytotoxicity against human A549 cells assessed as reduction in cell viability after 72 hrs by MTT assay; type: functional, cell-based; conditions: A549, 72 h
[7] = species on record: Homo sapiens; assay: Down regulation of NFkappaB expression in human A549RT-eto cells at 1 to 5 ug/ml measured after 24 hrs by immunoblotting analysis; type: functional, cell-based
[8] = species on record: Homo sapiens; assay: Inhibition of NFkappaB in human A549RT-eto cells assessed as down regulation of S0x2 expression by immunoblotting analysis; type: cell-based
[9] = species on record: Homo sapiens; assay: Inhibition of NFkappaB in human A549RT-eto cells assessed as down regulation of Oct4 expression by immunoblotting analysis; type: cell-based
[10] = species on record: Homo sapiens; assay: Cytotoxicity against human A549RT-eto cells assessed as cell death after 24 hrs by MTT assay; type: functional, cell-based
[11] = species on record: Homo sapiens; assay: Inhibition of NFkappaB in human A549RT-eto cells assessed as suppression of sphere formation by measuring decrease in spheroid size at 1.5 ug/mL treated for 24 hrs followed by cell culture for 6 days and measured over 48 hrs by optical microscopic method; type: cell-based
[12] = species on record: Homo sapiens; assay: Induction of apoptosis in human A549RT-eto cells transfected with NF-kappaB siRNA assessed as increase in pro-caspase 9 expression at 1.5 ug/ml by immunoblotting analysis; type: functional, cell-based
[13] = species on record: Homo sapiens; assay: Inhibition of NFkappaB in human A549RT-eto cells assessed as down regulation of P-gp expression at 1 to 5 ug/ml measured after 24 hrs by immunoblotting analysis; type: cell-based
[14] = Antiinvasive activity in human A549RT-eto cells assessed as reduction in cell invasion at 1.5 ug/ml measured after 24 hrs using hematoxylin-eosin by microscopy-based transwell assay relative to control; type: functional
[15] = species on record: Homo sapiens; assay: Induction of apoptosis in human A549RT-eto cells assessed as reduction in […] 9 level at 1 to 5 ug/ml measured after 24 hrs by immunoblotting analysis; type: functional, cell-based
[16] = species on record: Homo sapiens; assay: Down regulation of P-gp expression in human A549RT-eto cells transfected with NF-kappaB siRNA at 1.5 ug/ml by immunoblotting analysis; type: functional, cell-based
[17] = species on record: Homo sapiens; assay: Inhibition of NFkappaB in human A549RT-eto cells assessed as suppression of sphere formation by measuring decrease in number of spheroid formation at 1.5 ug/mL treated for 24 hrs followed by cell culture for 6 days and measured over 48 hrs by optical microscopic method; type: cell-based
[18] = species on record: Homo sapiens; assay: Induction of apoptosis in human A549RT-eto cells transfected with NF-kappaB siRNA assessed as increase in cleaved PARP expression at 1.5 ug/ml by immunoblotting analysis; type: functional, cell-based
[19] = (§1) Cytotoxicity against human A549RT-eto cells assessed as reduction in cell viability after 72 hrs by MTT assay; type: functional, cell-based
[20] = species on record: Homo sapiens; assay: as §1; type: functional, cell-based
[21] = species on record: Homo sapiens; assay: Inhibition of NFkappaB in human A549RT-eto cells assessed as downregulation of Nanog expression by immunoblotting analysis; type: cell-based
[22] = species on record: Homo sapiens; assay: Induction of apoptosis in human A549RT-eto cells assessed as reduction in […] 8 level at 1 to 5 ug/ml measured after 24 hrs by immunoblotting analysis; type: functional, cell-based
[23] = species on record: Homo sapiens; assay: Inhibition of NFkappaB in human A549RT-eto cells assessed as down regulation of Bmi1 expression by immunoblotting analysis; type: cell-based
[24] = species on record: Homo sapiens; assay: Inhibition of NFkappaB in human A549RT-eto cells assessed as reduction in epithelial-mesenchymal transition by measuring down regulation of vimentin expression at 1 to 1.5 ug/ml after 24 hrs by immunoblotting analysis; type: cell-based
[25] = species on record: Homo sapiens; assay: Inhibition of NFkappaB in human A549RT-eto cells assessed as reduction in epithelial-mesenchymal transition by measuring down regulation of N-Cadherin expression at 1 to 1.5 ug/ml after 24 hrs by immunoblotting analysis; type: cell-based

CO[C@@]12C=C3C(=O)c4c(O)cccc4O[C@@]34[C@@H](C1)C(C)(C)O[C@@]4(CC=C(C)C)C2=O
4.96 µg/mL: IC50 [19]
2: fold change (FC) [14]
2.51 µg/mL: IC50 [6]
active: inhibition [1] | Activity [2] | Activity [3] | Activity [4] | Activity [5] | Activity [7] | inhibition [8] Dose-dependent effect | inhibition [9] Dose-dependent effect | Activity [10] | inhibition [11] | Activity [12] | inhibition [13] | Activity [15] | Activity [16] | inhibition [17] | Activity [18] | Activity [20] Dose-dependent effect | inhibition [21] Dose-dependent effect | Activity [22] | inhibition [23] Dose-dependent effect | inhibition [24] | inhibition [25]
